Biological target: T1, purified human MAP4K4 kinase domain (Homo sapiens, UniProt O95819)
T1 construct: purified human MAP4K4 kinase domain
Experiment: MAP4K4 Inhibition Assay Protocol No. 1 (Caliper LabChip, moesin-derived peptide phosphorylation)
Format: biochemical
Settings: Assay 1; 1 nM enzyme, 10 uM ATP, 45 min
Procedure: The kinase activity of purified human MAP4K4 kinase domain was measured by monitoring the phosphorylation of a peptide substrate derived from moesin protein (Leu-Gly-Arg-Asp-Lys-Tyr-Lys-Thr-Leu-Arg-Gln-Ile-Arg-Gln) fluorescently labeled on the N-terminus with 5-carboxyfluorescein using the Caliper LabChip technology (Caliper Life Sciences, Hopkinton, Mass.). To determine inhibition constants (IC50), compounds were serially diluted in DMSO and added to 10 uL kinase reactions containing 1 nM purified MAP4K4 enzyme, 1 uM peptide substrate, 10 uM ATP, 10 mM MgCl2, 1 mM EGTA, 50 mM Hepes pH 7.2, 1 mM DTT, 0.01% Triton X-100, and 2% DMSO. Reactions were incubated at room temperature in Perkin Elmer Proxiplates for 45 minutes and stopped by the addition of 10 uL of an EDTA-containing solution (50 mM Hepes pH 7.2, 40 mM EDTA, 0.02% Triton X-100). The fraction of phosphorylated peptide was determined as a fraction of total peptide substrate using the Caliper Lab Chip 3000 according to the manufacturer's instructions. IC50 values were determined using the four-parameter non-linear fit model.

T1 sequence (O95819 25-289 limits assumed): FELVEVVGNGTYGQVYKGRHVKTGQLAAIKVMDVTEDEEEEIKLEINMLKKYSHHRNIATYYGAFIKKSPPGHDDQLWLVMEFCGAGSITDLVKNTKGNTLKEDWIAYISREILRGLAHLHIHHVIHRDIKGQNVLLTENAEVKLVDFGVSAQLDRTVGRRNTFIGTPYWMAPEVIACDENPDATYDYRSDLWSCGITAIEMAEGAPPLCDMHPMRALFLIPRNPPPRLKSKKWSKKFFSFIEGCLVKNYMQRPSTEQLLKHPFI

Row | IC50 [µM] | Compound
1 | 0.0565 | 1-amino-7-(3-fluorophenyl)- N-(4-hydroxycyclohexyl) isoquinoline-4-carboxamide [Example 113]
2 | 1.4 | 1-amino-N-[2-(3,5-dimethyl- pyrazol-1-yl)ethyl]-7- (3-fluorophenyl) isoquinoline-4-carboxamide [Example 79]
3 | 0.122 | CN(C)C(=O)c1nc(CNC(=O)c2cnc(N)c3cc(-c4cccc(F)c4)ccc23)no1 [Example 1, 3-[[[1-amino-7-(3-fluorophenyl)isoquinoline-4-carbonyl]amino]methyl]-N,N-dimethyl-1,2,4-oxadiazole-5-carboxamide]
4 | 0.299 | Nc1ncc(-c2nc3ccccc3[nH]2)c2ccc(-c3cccc(F)c3)cc12 [Example 2, 4-(1H-benzimidazol-2-yl)-7-(3-fluorophenyl)isoquinolin-1-amine]
5 | 0.0388 | Nc1ncc(C(=O)NC2CC(O)C2)c2ccc(-c3cccc(F)c3)cc12 (stereo not shown) [Example 3, 1-amino-7-(3-fluorophenyl)-N-(3-hydroxycyclobutyl)isoquinoline-4-carboxamide]
6 | 0.0221 | N#Cc1cnc(N)c2cc(-c3cccc(F)c3)ccc12 [Example 4, 1-amino-7-(3-fluorophenyl)isoquinoline-4-carbonitrile]
7 | 1.2 | NCc1cnc(N)c2cc(-c3cccc(F)c3)ccc12 [Example 5, 4-(aminomethyl)-7-(3-fluorophenyl)isoquinolin-1-amine]
8 | 0.0506 | CC(=O)N1CC(NC(=O)c2cnc(N)c3cc(-c4cccc(F)c4)ccc23)C1 [Example 9, N-(1-acetylazetidin-3-yl)-1-amino-7-(3-fluorophenyl)isoquinoline-4-carboxamide]
9 | 0.00129 | Nc1ncc(C(=O)NC2CC2)c2ccc(-c3cccc(F)c3)nc12 [Example 13, 8-amino-N-cyclopropyl-2-(3-fluorophenyl)-1,7-naphthyridine-5-carboxamide]
10 | 0.0841 | Nc1ncc(C(=O)NCCN2CCOCC2)c2ccc(-c3cccc(F)c3)cc12 [Example 45, 1-amino-7-(3-fluorophenyl)-N-(2-morpholinoethyl) isoquinoline-4-carboxamide]
11 | 2.4 | CN(C)CCNC(=O)c1cnc(N)c2cc(-c3cccc(F)c3)ccc12 [Example 46, 1-amino-N-[2-(dimethylamino)ethyl]-7-(3-fluorophenyl) isoquinoline-4-carboxamide]
12 | 1.6 | Nc1ncc(C(=O)NCCN2CCCC2)c2ccc(-c3cccc(F)c3)cc12 [Example 47, 1-amino-7-(3-fluorophenyl)-N-(2-pyrrolidin-1-ylethyl)isoquinoline-4-carboxamide]
13 | 4.2 | CS(=O)(=O)N1CCN(C(=O)c2cnc(N)c3cc(-c4cccc(F)c4)ccc23)CC1 [Example 48, [1-amino-7-(3-fluorophenyl)-4-isoquinolyl]-(4-methylsulfonylpiperazin-1-yl)methanone]
14 | 2.6 | CC(=O)N1CCN(C(=O)c2cnc(N)c3cc(-c4cccc(F)c4)ccc23)CC1 [Example 49, 1-[4-[1-amino-7-(3-fluorophenyl)isoquinoline-4-carbonyl]piperazin-1-yl] ethanone]
15 | 1.5 | NC(=O)C1CCN(C(=O)c2cnc(N)c3cc(-c4cccc(F)c4)ccc23)CC1 [Example 50, 1-[1-amino-7-(3-fluorophenyl)isoquinoline-4-carbonyl] piperidine-4-carboxamide]
16 | 2 | NC(=O)C1CCCN(C(=O)c2cnc(N)c3cc(-c4cccc(F)c4)ccc23)C1 (stereo not shown) [Example 51, 1-[1-amino-7-(3-fluorophenyl)isoquinoline-4-carbonyl] piperidine-3-carboxamide]
17 | 1.5 | CN(C)C(=O)CN1CCN(C(=O)c2cnc(N)c3cc(-c4cccc(F)c4)ccc23)CC1 [Example 52, 2-[4-[1-amino-7-(3-fluorophenyl)isoquinoline-4-carbonyl]piperazin-1-yl]-N,N-dimethyl-acetamide]
18 | 0.388 | Nc1ncc(C(=O)NCCS(=O)(=O)N2CCCC2)c2ccc(-c3cccc(F)c3)cc12 [Example 53, 1-amino-7-(3-fluorophenyl)-N-(2-pyrrolidin-1-ylsulfonylethyl) isoquinoline-4-carboxamide]
19 | 0.0175 | COCc1ccc(NC(=O)c2cnc(N)c3cc(-c4cccc(F)c4)ccc23)cc1 [Example 54, 1-amino-7-(3-fluorophenyl)-N-[4-(methoxymethyl)phenyl]isoquinoline-4-carboxamide]
20 | 0.622 | Nc1ncc(C(=O)N2CCC(CO)CC2)c2ccc(-c3cccc(F)c3)cc12 [Example 55, [1-amino-7-(3-fluorophenyl)-4-isoquinolyl]-[4-(hydroxy-methyl)-1-piperidyl] methanone]

Row | IC50 [µM] | Compound
21 | 0.249 | Nc1ncc(C(=O)NCC2CCOCC2)c2ccc(-c3cccc(F)c3)cc12 [Example 56, 1-amino-7-(3-fluorophenyl)-N-(tetrahydropyran-4-ylmethyl)isoquinoline-4-carboxamide]
22 | 0.102 | CC(=O)N1CCC(NC(=O)c2cnc(N)c3cc(-c4cccc(F)c4)ccc23)CC1 [Example 57, N-(1-acetyl-4-piperidyl)-1-amino-7-(3-fluorophenyl) isoquinoline-4-carboxamide]
23 | 0.146 | Nc1ncc(C(=O)NCCN2CCCCC2=O)c2ccc(-c3cccc(F)c3)cc12 [Example 58, 1-amino-7-(3-fluorophenyl)-N-[2-(2-oxo-1-piperidyl)ethyl]isoquinoline-4-carboxamide]
24 | 0.0999 | Nc1ncc(C(=O)NCC2CCOC2)c2ccc(-c3cccc(F)c3)cc12 (stereo not shown) [Example 59, 1-amino-7-(3-fluorophenyl)-N-(tetrahydrofuran-3-ylmethyl)isoquinoline-4-carboxamide]
25 | 0.238 | CNC(=O)C1CN(C(=O)c2cnc(N)c3cc(-c4cccc(F)c4)ccc23)CCO1 (stereo not shown) [Example 60, 4-[1-amino-7-(3-fluorophenyl)isoquinoline-4-carbonyl]-N-methyl-morpholine-2-carboxamide]
26 | 0.0368 | NC(=O)c1nc(CNC(=O)c2cnc(N)c3cc(-c4cccc(F)c4)ccc23)no1 [Example 61, 3-[[[1-amino-7-(3-fluorophenyl)isoquinoline-4-carbonyl]amino]methyl]-1,2,4-oxadiazole-5-carboxamide]
27 | 0.0338 | Nc1ncc(C(=O)Nc2ccccc2)c2ccc(-c3cccc(F)c3)cc12 [Example 62, 1-amino-7-(3-fluorophenyl)-N-phenyl-isoquinoline-4-carboxamide]
28 | 0.0127 | Nc1ncc(C(=O)Nc2ccc(CO)cc2)c2ccc(-c3cccc(F)c3)cc12 [Example 63, 1-amino-7-(3-fluorophenyl)-N-[4-(hydroxymethyl)phenyl]isoquinoline-4-carboxamide]
29 | 0.34 | Nc1ncc(C(=O)NCCCN2CCOCC2)c2ccc(-c3cccc(F)c3)cc12 [Example 64, 1-amino-7-(3-fluorophenyl)-N-(3-morpholinopropyl) isoquinoline-4-carboxamide]
30 | 1.7 | Nc1ncc(C(=O)N2CCN(CCO)CC2)c2ccc(-c3cccc(F)c3)cc12 [Example 65, [1-amino-7-(3-fluorophenyl)-4-isoquinolyl]-[4-(2-hydroxyethyl)piperazin-1-yl]methanone]
31 | 0.0327 | NC(=O)c1cnc(N)c2cc(-c3cccc(F)c3)ccc12 [Example 66, 1-amino-7-(3-fluorophenyl) isoquinoline-4-carboxamide]
32 | 0.651 | CN1CCC(NC(=O)c2cnc(N)c3cc(-c4cccc(F)c4)ccc23)CC1 [Example 67, 1-amino-7-(3-fluorophenyl)-N-(1-methyl-4-piperidyl) isoquinoline-4-carboxamide]
33 | 0.12 | Nc1ncc(C(=O)NC2CCOCC2)c2ccc(-c3cccc(F)c3)cc12 [Example 68, 1-amino-7-(3-fluorophenyl)-N-tetrahydropyran-4-yl-isoquinoline-4-carboxamide]
34 | 0.35 | Nc1ncc(C(=O)NCCN2CCC(O)CC2)c2ccc(-c3cccc(F)c3)cc12 [Example 69, 1-amino-7-(3-fluorophenyl)-N-[2-(4-hydroxy-1-piperidyl)ethyl] isoquinoline-4-carboxamide]
35 | 0.0852 | Nc1ncc(C(=O)NC2CCCC(O)C2)c2ccc(-c3cccc(F)c3)cc12 (stereo not shown) [Example 70, 1-amino-7-(3-fluorophenyl)-N-(3-hydroxycyclohexyl) isoquinoline-4-carboxamide]
36 | 0.0395 | CNC(=O)c1cnc(N)c2cc(-c3cccc(F)c3)ccc12 [Example 74, 1-amino-7-(3-fluorophenyl)-N-methyl-isoquinoline-4-carboxamide]
37 | 0.0148 | COc1ccc(NC(=O)c2cnc(N)c3cc(-c4cccc(F)c4)ccc23)cc1 [Example 75, 1-amino-7-(3-fluorophenyl)-N-(4-methoxyphenyl) isoquinoline-4-carboxamide]
38 | 0.245 | Nc1ncc(C(=O)NCCN2CCS(=O)(=O)CC2)c2ccc(-c3cccc(F)c3)cc12 [Example 76, 1-amino-N-[2-(1,1-dioxo-1,4-thiazinan-4-yl)ethyl]-7-(3-fluorophenyl) isoquinoline-4-carboxamide]
39 | 0.507 | Nc1ncc(C(=O)NCCN2CCCC2=O)c2ccc(-c3cccc(F)c3)cc12 [Example 77, 1-amino-7-(3-fluorophenyl)-N-[2-(2-oxopyrrolidin-1-yl)ethyl]isoquinoline-4-carboxamide]
40 | 2.4 | CC(C)(N)CNC(=O)c1cnc(N)c2cc(-c3cccc(F)c3)ccc12 [Example 78, 1-amino-N-(2-amino-2-methyl-propyl)-7-(3-fluorophenyl) isoquinoline-4-carboxamide]

Reference: US9586956B2, “Isoquinoline and naphthyridine derivatives” (Genentech, Inc., priority 2012, dated 2017)
